Test results reported in EP4678638A1, “NEW E3 UBIQUITIN LIGASE LIGAND, PROTEIN DEGRADATION AGENT AND USE THEREOF” (priority 2023, dated 2024).

Experiments:
H1975 = assay: CCK-8 proliferation, NCI-H1975 (H1975); type: cell-based, Human; details: Homo sapiens, NCI-H1975; CCK-8; 96 hours; read-out: Inhibitory activity (IC50) on tumor cell proliferation, H1975
How it was run: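 CCK-8 viability readout; IC50 from growth-inhibition curve fitting. Cells plated, dosed 24h later with a 10-point series, top 10µM, 5-fold steps. Culture at 37°C, 5% CO2.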

EGFR = assay: Western blot degradation of EGFR (H1975 Cell); type: cell-based, Human; details: Table D2
Method: Conventional Western blot assay was performed to evaluate the effects of the compounds of the present disclosure on the expression of target proteins in cells.
(1) Cell Seeding and Protein Harvesting: The selected cells were processed according to the cell seeding procedure and protein harvesting procedure in Table III-2. Table III-2 Cell Seeding and Protein Harvesting Procedures
(2) To the collected supernatant, 5X SDS sample loading buffer was added, followed by denaturation at 95°C for 5 minutes. The denatured samples were then separated by SDS-PAGE electrophoresis on a polyacrylamide gel. Proteins were transferred to a nitrocellulose membrane (0.45 µm NC membrane), blocked with blocking buffer at room temperature for 1 hour, and subjected to antibody incubation and development procedures according to the antibody manufacturer's instructions (Cell Signaling Technology).
Half-Maximal Degradation Concentration value (the drug concentration required for degrading proteins by 50%, abbreviated as DC50) reads method: comparing the grayscale values of Western blot bands from drug-treated samples with those from blank DMSO-treated controls, and identifying the drug concentration range at which the grayscale value is half that of the DMSO-treated control bands.
DC50 values can be calculated using ImageJ software to measure grayscale values of Western blot bands from drug-treated samples. The concentration-response curve is fitted to estimate the drug concentration corresponding to half the grayscale value.
Target protein remaining (%) refers to the percentage of target protein remaining in hPBMC cells after treatment with protein degrader compounds.
Calculation method for target protein remaining (%): Use ImageJ software to measure grayscale values of Western blot bands from drug (protein degrader)-treated samples. The grayscale value of drug-treated bands is divided by that of internal control protein bands, and the resulting quotient is normalized to obtain the relative percentage of remaining target protein after protein degrader treatment.
Target protein degradation rate (%) = 100% - target protein remaining (%).

IC50 (H1975) [nM]	SMILES	Degradation of substrate protein EGFR (substrate protein remaining %) (EGFR)
1 to 10	CN(Cc1ccnc(N2CCC(=O)NC2=O)c1)C1CCN(c2ccc(-c3cc(F)c4c(c3)C(=O)N(C(C(=O)Nc3nccs3)c3ncn5c3CCC5)C4)cc2)CC1 (stereo not shown) [GT-07383, 2-(6,7-dihydro-5H-pyrrolo[1,2-c]imidazol-1-yl)-2-(6-(4-(4-(((2-(2,4-dioxotetrahydropyrimidin-1(2H)-yl)pyridin-4-yl)methyl)(methyl)amino)piperidin-1-yl)phenyl)-4-fluoro-1-oxoisoindolin-2-yl)-N-(thiazol-2-yl)acetamide]	A (A is defined as 0% ≤ substrate protein remaining % ≤ 80%)
10 to 50	O=C1CCC(c2ccc(CN3CCN(C4CCN(c5ccc(-c6cc(F)c7c(c6)C(=O)N(C(C(=O)Nc6nccs6)c6ncn8c6CCC8)C7)cc5)CC4(F)F)CC3)cc2)C(=O)N1 (stereo not shown) [GT-06317, 2-(6,7-dihydro-5H-pyrrolo[1,2-c]imidazol-1-yl)-2-(6-(4-(4-(4-(4-(2,6-dioxopiperidin-3-yl)benzyl)piperazin-1-yl)-3,3-difluoropiperidin-1-yl)phenyl)-4-fluoro-1-oxoisoindolin-2-yl)-N-(thiazol-2-yl)acetamide]	A (A is defined as 0% ≤ substrate protein remaining % ≤ 80%)
1 to 10	O=C1CCC(c2cncc(CN3C[C@H]4C[C@@H]3CN4c3ccc(-c4cc(F)c5c(c4)C(=O)N(C(C(=O)Nc4nccs4)c4ncn6c4CCC6)C5)cc3)c2)C(=O)N1 (stereo partly drawn) [GT-07391, 2-(6,7-dihydro-5H-pyrrolo[1,2-c]imidazol-1-yl)-2-(6-(4-((1R,4R)-5-((5-(2,6-dioxopiperidin-3-yl)pyridin-3-yl)methyl)-2,5-diazabicyclo[2.2.1]heptan-2-yl)phenyl)-4-fluoro-1-oxoisoindolin-2-yl)-N-(thiazol-2-yl)acetamide]	A (A is defined as 0% ≤ substrate protein remaining % ≤ 80%)
1 to 10	O=C1CCN(c2cccc(CN3CCN(c4ccc(-c5cc(F)c6c(c5)C(=O)N(C(C(=O)Nc5nccs5)c5ncn7c5CCC7)C6)cc4)CC3)c2)C(=O)N1 (stereo not shown) [GT-06165, 2-(6,7-dihydro-5H-pyrrolo[1,2-c]imidazol-1-yl)-2-(6-(4-(4-(3-(2,4-dioxotetrahydropyrimidin-1(2H)-yl)benzyl)piperazin-1-yl)phenyl)-4-fluoro-1-oxoisoindolin-2-yl)-N-(thiazol-2-yl)acetamide]	A (A is defined as 0% ≤ substrate protein remaining % ≤ 80%)
1 to 10	O=C1CCC(c2ccc(CN3CCN(c4ccc(-c5cc(F)c6c(c5)C(=O)N(C(C(=O)Nc5nccs5)c5ncn7c5CCC7)C6)cc4)CC3)cc2)C(=O)N1 (stereo not shown) [GT-06163, 2-(6,7-dihydro-5H-pyrrolo[1,2-c]imidazol-1-yl)-2-(6-(4-(4-(4-(2,6-dioxopiperidin-3-yl)benzyl)piperazin-1-yl)phenyl)-4-fluoro-1-oxoisoindolin-2-yl)-N-(thiazol-2-yl)acetamide]	A (A is defined as 0% ≤ substrate protein remaining % ≤ 80%)
1 to 10	O=C1CCC(c2ccc(CN3C[C@H]4C[C@@H]3CN4c3ccc(-c4cc(F)c5c(c4)C(=O)N(C(C(=O)Nc4nccs4)c4ncn6c4CCC6)C5)cc3)nc2)C(=O)N1 (stereo partly drawn) [GT-07389, 2-(6,7-dihydro-5H-pyrrolo[1,2-c]imidazol-1-yl)-2-(6-(4-((1R,4R)-5-((5-(2,6-dioxopiperidin-3-yl)pyridin-2-yl)methyl)-2,5-diazabicyclo[2.2.1]heptan-2-yl)phenyl)-4-fluoro-1-oxoisoindolin-2-yl)-N-(thiazol-2-yl)acetamide]	A (A is defined as 0% ≤ substrate protein remaining % ≤ 80%)
–	CC(C)n1nc(N2CCN(Cc3ccc(N4CCC(=O)NC4=O)cn3)CC2)c2cnc(Nc3ccnc(-c4cnn(S(=O)(=O)C5CC5)c4)n3)cc21 [GT-06014, 1-(6-((4-(6-((2-(1-(cyclopropylsulfonyl)-1H-pyrazol-4-yl)pyrimidin-4-yl)amino)-1-isopropyl-1H-pyrazolo[4,3-c]pyridin-3-yl)piperazin-1-yl)methyl)pyridin-3-yl)dihydropyrimidine-2,4(1H,3H)-dione]	A (A is defined as 0% ≤ substrate protein remaining % ≤ 80%)
–	COC1CCN(c2nccc(Nc3cc4c(cn3)c(N3CCN(Cc5ccc(N6CCC(=O)NC6=O)cn5)CC3)nn4C(C)C)n2)CC1 [GT-06039, 1-(6-((4-(1-isopropyl-6-((2-(4-methoxypiperidin-1-yl)pyrimidin-4-yl)amino)-1H-pyrazolo[4,3-c]pyridin-3-yl)piperazin-1-yl)methyl)pyridin-3-yl)dihydropyrimidine-2,4(1H,3H)-dione]	A (A is defined as 0% ≤ substrate protein remaining % ≤ 80%)
–	COc1cc(N2CCN(Cc3ccc(C4CCC(=O)NC4=O)cc3)CC2)c(C)cc1Nc1ncc(Br)c(Nc2ccc3nccnc3c2P(C)(C)=O)n1 (stereo not shown) [GT-03913, 3-(4-((4-(4-((5-bromo-4-((5-(dimethylphosphoryl)quinoxalin-6-yl)amino)pyrimidin-2-yl)amino)-5-methoxy-2-methylphenyl)piperazin-1-yl)methyl)phenyl)piperidine-2,6-dione]	A (A is defined as 0% ≤ substrate protein remaining % ≤ 80%)
–	CC(C)n1nc(N2CCN(Cc3cccc(NC4CCC(=O)NC4=O)c3)CC2)c2cnc(Nc3ccnc(-c4cnn(S(=O)(=O)C5CC5)c4)n3)cc21 (stereo not shown) [GT-06016, 3-((3-((4-(6-((2-(1-(cyclopropylsulfonyl)-1H-pyrazol-4-yl)pyrimidin-4-yl)amino)-1-isopropyl-1H-pyrazolo[4,3-c]pyridin-3-yl)piperazin-1-yl)methyl)phenyl)amino)pip eridine-2,6-dione]	A (A is defined as 0% ≤ substrate protein remaining % ≤ 80%)
–	COc1cc(N2CCN(Cc3ccc(C4CCC(=O)NC4=O)c(F)c3)CC2)c(C)cc1Nc1ncc(Br)c(Nc2ccc3nccnc3c2P(C)(C)=O)n1 (stereo not shown) [GT-03914, 3-(4-((4-(4-((5-bromo-4-((5-(dimethylphosphoryl)quinoxalin-6-yl)amino)pyrimidin-2-yl)amino)-5-methoxy-2-methylphenyl)piperazin-1-yl)methyl)-2-fluorophenyl)piperidine-2,6-dione]	A (A is defined as 0% ≤ substrate protein remaining % ≤ 80%)
–	COC1CCN(c2nccc(Nc3cc4c(cn3)c(N3CCN(Cc5cccc(N6CCC(=O)NC6=O)c5)CC3)nn4C(C)C)n2)CC1 [GT-06038, 1-(3-((4-(1-isopropyl-6-((2-(4-methoxypiperidin-1-yl)pyrimidin-4-yl)amino)-1H-pyrazolo[4,3-c]pyridin-3-yl)piperazin-1-yl)methyl)phenyl)dihydropyr imidine-2,4(1H,3H)-dione]	A (A is defined as 0% ≤ substrate protein remaining % ≤ 80%)
–	COc1cc(N2CCC(N(C)Cc3ccc(C4CCC(=O)NC4=O)c(F)c3)CC2)c(C)cc1Nc1ncc(Br)c(Nc2ccc3nccnc3c2P(C)(C)=O)n1 (stereo not shown) [GT-03931, 3-(4-(((1-(4-((5-bromo-4-((5-(dimethylphosphoryl)quinoxalin-6-yl)amino)pyrimidin-2-yl)amino)-5-methoxy-2-methylphenyl)piperidin-4-yl)(methyl)amino)methyl)-2-fluorophenyl)piperidine-2,6-dione]	A (A is defined as 0% ≤ substrate protein remaining % ≤ 80%)
–	COC1CCN(c2nccc(Nc3cc4c(cn3)c(N3CCC(N(C)Cc5cccc(N6CCC(=O)NC6=O)c5)CC3)nn4C(C)C)n2)CC1 [GT-06122, 1-(3-(((1-(1-isopropyl-6-((2-(4-methoxypiperidin-1-yl)pyrimidin-4-yl)amino)-1H-pyrazolo[4,3-c]pyridin-3-yl)piperidin-4-yl)(methyl)amino)methyl)phenyl)dihydropyrimidine-2,4(1H,3H)-dione]	A (A is defined as 0% ≤ substrate protein remaining % ≤ 80%)
–	CC(C)n1nc(N2CCC(N3CCN(Cc4cccc(NC5CCC(=O)NC5=O)c4)CC3)CC2)c2cnc(Nc3ccnc(-c4cnn(S(=O)(=O)C5CC5)c4)n3)cc21 (stereo not shown) [GT-06083, 3-((3-((4-(1-(6-((2-(1-(cyclopropylsulfonyl)-1H-pyrazol-4-yl)pyrimidin-4-yl)amino)-1-isopropyl-1H-pyrazolo[4,3-c]pyridin-3-yl)piperidin-4-yl)piperazin-1-yl)methyl)phenyl)amino)pip eridine-2,6-dione]	A (A is defined as 0% ≤ substrate protein remaining % ≤ 80%)
–	CN(Cc1ccc(N2CCC(=O)NC2=O)cc1)C1CCN(c2ccc(Nc3ncc4nc(Nc5ccccc5)n(C5CCCC5)c4n3)cc2)CC1 [GT-07092, 1-(4-(((1-(4-((9-cyclopentyl-8-(phenylamino)-9H-purin-2-yl)amino)phenyl)piperidin-4-yl)(methyl)amino)methyl)phenyl)dihydropyrimidine-2,4(1H,3H)-dione]	A (A is defined as 0% ≤ substrate protein remaining % ≤ 80%)
